Patent EP0076089A2, “Azabicycloalkane derivatives, process for their preparation, and a pharmaceutical composition containing them” (BEECHAM GROUP PLC, priority 1981, dated 1983)
Where a name gives a salt, the structure may show the parent alone.

Test system: spontaneous climbing behaviour of mice
Experiment: Spontaneous climbing behaviour of mice (method of Martres et al.)
Format: in vivo
Conditions: 0.2mg/kg subcutaneous, climbs counted over a 10 minute period commencing 3 minutes after administration, percentage change from control group
Experimental: It is believed that this inhibitory effect is mediated by stimulation of presynaptic dopaminergic autoreceptors, i.e. receptors whose stimulation results in inhibition of dopamine synthesis and electrical activity of dopamine neurones. Spontaneous climbing behaviour was assessed by the method of M.P. Martres et al., Brain Research, 1977, 136, 319. This involves the monitoring of the frequency of climbing behaviour of mice in inverted food hoppers over a 10 minute period commencing 3 minutes after subcutaneous administration of compound. A climb is defined as the mouse having all four feet off the ground. Experiments are carried out with a minimum of 5 groups of 10 mice, one group acting as control.

SMILES: Oc1cccc(C2CCC3CCC2N3Cc2ccccc2)c1 (racemic) [Compound 14, (±)-(2-endo)-8-Benzyl-2-(3'-hydroxyphenyl)-8-azabicyclo(3.2.1)octane hydrobromide]
- % Inhibition of Spontaneous Climbing at 0.2mg/kg (hydrobromide, 0.2 mg/kg): 38%

SMILES: Oc1cccc(C2CCC3CCC2N3CCc2ccccc2)c1 (racemic) [Compound 20, 2-endo-8-phenethyl-2-(3'-hydroxyphenyl)-8-azabicyclo[3.2.1] octane]
- % Inhibition of Spontaneous Climbing at 0.2mg/kg: 12%

SMILES: Oc1cccc(C2CCC3CCC2N3Cc2ccccc2)c1 (racemic) [Compound 13, (±)-(2-Exo)-8-Benzyl-2-(3'-hydroxyphenyl)-8-azabicyclo(3.2.1)octane hydrobromide]
- % Inhibition of Spontaneous Climbing at 0.2mg/kg (hydrobromide, 0.2 mg/kg): 24%

SMILES: CCCN1C2CCC(c3cccc(O)c3)C1CC2 (racemic) [Compound 16, 2-endo-8-n-propyl-2-(3'-hydroxyphenyl)-8-azabicyclo[3.2.7]octane]
- % Inhibition of Spontaneous Climbing at 0.2mg/kg: 49%
